Patent US11098063B2, “Diazabicyclic substituted imidazopyrimidines and their use for the treatment of breathing disorders” (Bayer Aktiengesellschaft, priority 2017, dated 2021)

Legend:
human TASK-1 = human TASK-1 (Homo sapiens (Human), UniProt O14649); experiment: Inhibition of recombinant TASK-1 in stably transfected CHO cells (voltage-sensitive dye, KCl depolarization); format: cell-based; conditions: depolarization by 40 mM potassium chloride
Procedure, shortened: (§1)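 Stably transfected CHO cells loaded with a voltage-sensitive membrane-potential dye were depolarized with 40 mM KCl in the presence of compound. IC50 is the concentration blocking half of the KCl-induced depolarization.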

human TASK-3 = human TASK-3 (Homo sapiens (Human), UniProt Q9NPC2); experiment: Inhibition of recombinant TASK-3 in stably transfected CHO cells (voltage-sensitive dye, KCl depolarization); format: cell-based; conditions: depolarization by 40 mM potassium chloride
Procedure, shortened: as §1

human TASK-3, sequence (Q9NPC2 whole entry): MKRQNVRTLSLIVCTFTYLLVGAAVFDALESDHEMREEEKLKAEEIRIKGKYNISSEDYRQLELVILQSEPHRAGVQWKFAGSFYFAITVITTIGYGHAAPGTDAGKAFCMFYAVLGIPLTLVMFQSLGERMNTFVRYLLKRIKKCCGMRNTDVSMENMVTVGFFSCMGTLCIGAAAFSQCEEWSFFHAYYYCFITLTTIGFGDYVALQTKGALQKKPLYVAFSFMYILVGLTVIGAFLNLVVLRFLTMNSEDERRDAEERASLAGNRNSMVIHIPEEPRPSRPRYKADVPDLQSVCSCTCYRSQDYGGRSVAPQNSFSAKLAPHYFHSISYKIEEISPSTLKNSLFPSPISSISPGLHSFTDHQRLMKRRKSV
human TASK-1, sequence (O14649 whole entry): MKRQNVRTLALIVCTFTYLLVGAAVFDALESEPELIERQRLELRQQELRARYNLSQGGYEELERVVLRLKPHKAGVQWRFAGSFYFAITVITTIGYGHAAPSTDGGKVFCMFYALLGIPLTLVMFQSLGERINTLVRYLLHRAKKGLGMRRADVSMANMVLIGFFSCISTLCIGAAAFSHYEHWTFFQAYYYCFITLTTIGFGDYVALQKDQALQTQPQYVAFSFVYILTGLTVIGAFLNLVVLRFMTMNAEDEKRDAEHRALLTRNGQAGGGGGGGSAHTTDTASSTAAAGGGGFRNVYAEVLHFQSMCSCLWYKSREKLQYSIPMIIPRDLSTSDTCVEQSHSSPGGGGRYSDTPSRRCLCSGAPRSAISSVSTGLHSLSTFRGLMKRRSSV

| Structure (SMILES) | IC50 (human TASK-1) | IC50 (human TASK-3) |
| --- | --- | --- |
| COc1cccc(C(=O)N2C3COCC2CN(Cc2c(-c4ccc(Cl)cc4)nc4ncccn24)C3)n1 [Example 13, (7-{[2-(4-Chlorophenyl)imidazo[1,2-a]pyrimidin-3-yl]methyl}-3-oxa-7,9-diazabicyclo[3.3.1]non-9-yl)(6-methoxypyridin-2-yl)methanone] | 1500 nM | 33 nM |
| CC(C)c1ocnc1C(=O)N1C2CCC1CN(Cc1c(-c3ccc(Cl)cc3)nc3ncccn13)C2 [Example 49] | 260 nM | 12 nM |
| O=C(OC1CCCC1)N1C2CCC1CN(Cc1c(-c3ccc(Cl)cc3)nc3ncccn13)C2 [Example 125, cyclopentyl 3-{[2-(4-chlorophenyl)imidazo[1,2-a]pyrimidin-3-yl]methyl}-3,8-diazabicyclo[3.2.1]octane-8-carboxylate] | 230 nM | 27 nM |
| COc1cccc(C(=O)N2C3COCC2CN(Cc2c(-c4ccc(C(C)C)cc4)nc4ncccn24)C3)n1 [Example 66] | 3700 nM | 20 nM |
| Cc1scnc1C(=O)N1C2CCC1CN(Cc1c(-c3ccc(Cl)cc3)nc3ncccn13)C2 [Example 59] | 3000 nM | 39 nM |
| CC(C)(C)OC(=O)N1CC2CCC1CN2Cc1c(-c2ccc(Cl)cc2)nc2ncccn12 (single isomer, unassigned) [Example 5, tert-Butyl 5-{[2-(4-chlorophenyl)imidazo[1,2-a]pyrimidin-3-yl]methyl}-2,5-diazabicyclo[2.2.2]octane-2-carboxylate] | 17000 nM | 1300 nM |
| CC(C)c1ccc(-c2nc3ncccn3c2CN2CC3CCC(C2)N3C(=O)c2ncoc2C2CC2)cc1 [Example 131, (5-Cyclopropyl-1,3-oxazol-4-yl)(3-{[2-(4-isopropylphenyl)imidazo[1,2-a]pyrimidin-3-yl]methyl}-3,8-diazabicyclo[3.2.1]oct-8-yl)methanone] | 3500 nM | 410 nM |
| O=C(C1CCCC1)N1C2COCC1CN(Cc1c(-c3ccc(Cl)cc3)nc3ncccn13)C2 [Example 17, (7-{[2-(4-Chlorophenyl)imidazo[1,2-a]pyrimidin-3-yl]methyl}-3-oxa-7,9-diazabicyclo[3.3.1]non-9-yl)(cyclopentyl)methanone] | 1200 nM | 33 nM |
| COc1ccc(Cl)c(C(=O)N2C3CCC2CN(Cc2c(-c4ccc(C5CC5)cc4)nc4ncccn24)C3)n1 [Example 136, (3-chloro-6-methoxypyridin-2-yl)(3-{[2-(4-cyclopropylphenyl)imidazo[1,2-a]pyrimidin-3-yl]methyl}-3,8-diazabicyclo[3.2.1]octan-8-yl)methanone] | 320 nM | 41 nM |
| Cc1cccc(C)c1NC(=O)N1C2CCC1CN(Cc1c(-c3ccc(Cl)cc3)nc3ncccn13)C2 [Example 92, 3-{[2-(4-chlorophenyl)imidazo[1,2-a]pyrimidin-3-yl]methyl}-N-(2,6-dimethylphenyl)-3,8-diazabicyclo[3.2.1]octane-8-carboxamide] | 15000 nM | 270 nM |
| O=C(N1CCSCC1)N1C2CCC1CN(Cc1c(-c3ccc(Cl)cc3)nc3ncccn13)C2 [Example 122, (3-{[2-(4-Chlorophenyl)imidazo[1,2-a]pyrimidin-3-yl]methyl}-3,8-diazabicyclo[3.2.1]oct-8-yl)(thiomorpholin-4-yl)methanone] | 5000 nM | 120 nM |
| O=C(Nc1ccc(Cl)cc1C(F)(F)F)N1C2CCC1CN(Cc1c(-c3ccc(Cl)cc3)nc3ncccn13)C2 [Example 106, 3-{[2-(4-chlorophenyl)imidazo[1,2-a]pyrimidin-3-yl]methyl}-N-[4-chloro-2-(trifluoromethyl)phenyl]-3,8-diazabicyclo[3.2.1]octane-8-carboxamide] | 30000 nM | 89 nM |
| CC(C)NC(=O)N1C2CCC1CN(Cc1c(-c3ccc(Cl)cc3)nc3ncccn13)C2 [Example 86, 3-{[2-(4-chlorophenyl)imidazo[1,2-a]pyrimidin-3-yl]methyl}-N-isopropyl-3,8-diazabicyclo[3.2.1]octane-8-carboxamide] | 7700 nM | 430 nM |
| O=C(c1ccccc1F)N1CC2CCC1CN2Cc1c(-c2ccc(Cl)cc2)nc2ncccn12 (stereo not drawn) [Example 39] | 1400 nM | 160 nM |
| O=C(C1CCCC1)N1C2CCC1CN(Cc1c(-c3ccc(Cl)cc3)nc3ncccn13)C2 [Example 34] | 76 nM | 29 nM |
| COc1cccc(C(=O)N2CC3CCC2CN3Cc2c(-c3ccc(Cl)cc3)nc3ncccn23)n1 (stereo not drawn) [Example 40] | 5700 nM | 210 nM |
| O=C(Nc1ccc(F)cc1F)N1C2CCC1CN(Cc1c(-c3ccc(Cl)cc3)nc3ncccn13)C2 [Example 85, 3-{[2-(4-Chlorophenyl)imidazo[1,2-a]pyrimidin-3-yl]methyl}-N-(2,4-difluorophenyl)-3,8-diazabicyclo[3.2.1]octane-8-carboxamide] | 30000 nM | 1000 nM |
| COc1ccc(F)c(C(=O)N2C3CCC2CN(Cc2c(-c4ccc(Br)cc4)nc4ncccn24)C3)n1 [Example 82] | 670 nM | 37 nM |
| CCN(C(=O)N1C2CCC1CN(Cc1c(-c3ccc(Cl)cc3)nc3ncccn13)C2)C1CCCCC1 [Example 112, 3-{[2-(4-chlorophenyl)imidazo[1,2-a]pyrimidin-3-yl]methyl}-N-cyclohexyl-N-ethyl-3,8-diazabicyclo[3.2.1]octane-8-carboxamide] | 15000 nM | 130 nM |
| O=C(Nc1cccc(Cl)c1Cl)N1C2CCC1CN(Cc1c(-c3ccc(Cl)cc3)nc3ncccn13)C2 [Example 94, 3-{[2-(4-chlorophenyl)imidazo[1,2-a]pyrimidin-3-yl]methyl}-N-(2,3-dichlorophenyl)-3,8-diazabicyclo[3.2.1]octane-8-carboxamide] | 30000 nM | 160 nM |
| O=C(c1cncs1)N1C2CCC1CN(Cc1c(-c3ccc(Cl)cc3)nc3ncccn13)C2 [Example 55] | 2900 nM | 170 nM |
| COc1ccc(Cl)c(C(=O)N2CC3CCC2CN3Cc2c(-c3ccc(Cl)cc3)nc3ncccn23)n1 (stereo not drawn) [Example 45] | 1800 nM | 120 nM |
| COc1ccc(F)c(C(=O)N2C3COCC2CN(Cc2c(-c4ccc(C(C)C)cc4)nc4ncccn24)C3)n1 [Example 18, (3-Fluoro-6-methoxypyridin-2-yl)(7-{[2-(4-isopropylphenyl)imidazo[1,2-a]pyrimidin-3-yl]methyl}-3-oxa-7,9-diazabicyclo[3.3.1]non-9-yl)methanone] | 910 nM | 8.6 nM |
| O=C(Nc1cccc(Cl)c1)N1C2CCC1CN(Cc1c(-c3ccc(Cl)cc3)nc3ncccn13)C2 [Example 89, N-(3-chlorophenyl)-3-{[2-(4-chlorophenyl)imidazo[1,2-a]pyrimidin-3-yl]methyl}-3,8-diazabicyclo[3.2.1]octane-8-carboxamide] | 30000 nM | 850 nM |
| O=C(c1ccccc1F)N1C2CCC1CN(Cc1c(-c3ccc(Cl)cc3)nc3ncccn13)C2 [Example 32] | 370 nM | 29 nM |
| CC(C)(C)OC(=O)N1CC2CCC1CN2Cc1c(-c2ccc(Br)cc2)nc2ncccn12 (stereo not drawn) [Example 11] | 2500 nM | 16 nM |
| Cc1ccc(C)c(NC(=O)N2C3CCC2CN(Cc2c(-c4ccc(Cl)cc4)nc4ncccn24)C3)c1 [Example 99, 3-{[2-(4-chlorophenyl)imidazo[1,2-a]pyrimidin-3-yl]methyl}-N-(2,5-dimethylphenyl)-3,8-diazabicyclo[3.2.1]octane-8-carboxamide] | 30000 nM | 750 nM |
